# Test results from patent US11458141B2, “Aryl hydrocarbon receptor (AhR) agonists for the prevention and treatment of inflammatory disorders” (The Johns Hopkins University, priority 2017, dated 2022).
# Entries after “also recorded” stand apart in the source; their conditions may differ.
# Key:
# Assay type in all cases: in vivo, mouse
# [1] = system: mice with NEC; test: I3C to the pregnant mother (50 mg/kg/day), AHR activation and NEC in the pup
# Text: The administration of the AHR ligand I3C to the pregnant mother prevents NEC in the newborn mouse (FIG. 16). […] Another aspect of the presently disclosed subject matter is to develop a diet rich in AHR ligands that could be administered to the mother, and protect against the development of NEC. […]
# [2] = system: AHR signaling pathway; test: Maternal I3C administration, Cypla1 mRNA in ileum of offspring with NEC; conditions: mums 25 mg/kg oral gavage E7 to P7
# Description: The pups whose mums received 25 mg/kg indole-3-carbinol (13C) by oral gavage starting from the embryonic age 7 (E7) of the fetus until the postnatal day 7 (P7) were included in maternal […]-rich group, while the pups whose mums received vehicle were included in maternal […]-free group. Necrotizing enterocolitis (NEC) was induced in 7-day-old mouse pups by gavage feeding and hypoxia exposure for 4 days. The ileum was harvested at the end of experiment and the mRNA expression of target genes was analyzed by qPCR. Referring now to FIG. 7, the mRNA expression of Cypla1, the down-stream gene of AHR signaling, was quantified in the ileum of experimental NEC models. Data are represented as mean±SEM; *p<0.05 between indicated groups; each dot represents an individual mouse.
# [3] = system: mice with NEC; test: Experimental NEC model in 7-day-old mice (formula gavage, hypoxia, NEC stool bacteria), NEC severity; conditions: for NEC severity: I3C oral 50 mg/kg/day, 50 mg/kg/day
# Text: The development of NEC requires TLR4 signaling in the intestinal epithelium. In seeking to understand the biological underpinnings of NEC, it has been discovered that activation within the intestinal epithelium of the receptor for gram-negative bacteria, namely toll-like receptor 4 (TLR4), is critical for the development of NEC. […] Further, mice that lack TLR4 in the intestinal epithelium (herein referred to as TLR4^ΔIEC mice) or globally (TLR4^−/−) were generated and then subjected to the well validated NEC model at 7 days of age. Mice were gavaged with formula, i.e., Similac Advance infant formula (Abbott Nutrition):Esbilac canince milk replacer (PetAb) in a 2:1 ratio at 50 μL/g every 3 hours, 10 mins hypoxia (5% O2 95% N2 in a Billups-Rothenberg chamber) twice daily for four days, and oral gavage of bacteria (1×10^5 cfu/mL) obtained from the stool of a patient with severe NEC. This experimental protocol induces patchy small intestinal necrosis, intestinal edema, and mucosal disruption very similar to human NEC in wild-type mice (FIG. 10), while mice lacking TLR4 in the intestinal epithelium (TLR4^ΔIEC mice) or globally (TLR4^−/−) were protected from NEC development. Mechanistically, TLR4 activation in the intestinal epithelium leads to an increase in apoptosis and a reduction in proliferation within the intestinal epithelium which leads to mucosal injury (FIG. 11). […]
# Another aspect of the presently disclosed subject matter was to identify novel agonists of AHR which could be orally administered to prevent or treat experimental NEC, and which have greater potency and pharmacokinetic properties than the dietary-derived ligand I3C. To do so, an AHR-luciferase screen in intestinal epithelial cells (IEC-6 cells) was developed, then compound libraries were screened, and validation in vitro and in vivo using readouts of AHR activation by measuring the expression of Cyp1 was performed. […]
# [4] = system: TLR4 signaling in the intestinal epithelium; test: LPS-induced TLR4 signaling and Cypla1 in the intestinal mucosa of mice
# Description: In seeking to investigate how AHR signaling attenuates NEC severity, whether AHR activation could limit the degree of TLR4 signaling in the gut was investigated. To do so, enteroids were derived from wild-type mice, which are intestinal cultures containing all cell lineages derived from intestinal crypts, as have been described.
# [5] = I3C 50 mg/kg/d to pregnant mice
smiles,measurement,setting,value
"OCc1c[nH]c2ccccc12 [I3C, indole-3-carbinol]",NEC severity in the pup,[1]; [5],significantly reduced NEC severity; also recorded: prevents NEC in the newborn mouse pup
same,cytokine (IL-6) induction in the pup,[1]; [5],reduced cytokine induction; also recorded: decreased IL-6 expression
same,enterocyte apoptosis in the pup,[1]; [5],reduced enterocyte apoptosis
same,mucosal injury / histology in the pup,[1]; [5],reduced; also recorded: improved histology
same,proliferation in the pup intestinal mucosa,[1]; [5],improved proliferation
same,Cypla1 expression in the intestine (AHR activation in utero),"[1]; I3C oral 50 mg/kg/day to the pregnant mother, 50 mg/kg/day",induced the downstream gene Cypla1 in the pup intestine; also recorded: leads to expression of Cypla1 in the intestinal epithelium of both the mother and the fetus
same,mRNA expression of Cypla1 (AHR signaling) in offspring,[2],significantly activated the AHR signaling pathway
same,NEC severity,[3]; AHR-/- mice,but not AHR^−/− mice; also recorded: does not protect
same,expression of proinflammatory gene IL-1,[3]; mice afflicted with NEC,reduced the expression of proinflammatory gene IL-1
same,NEC severity,[3]; wild-type mice,reduces NEC severity; also recorded: limits NEC severity
same,enterocyte apoptosis after TLR4 activation,"[4]; intestinal mucosa, I3C, LPS",reversed the deleterious effects of TLR4 activation on enterocyte apoptosis; also recorded: reverses LPS induced apoptosis
same,mucosal healing / proliferation after TLR4 activation,"[4]; intestinal mucosa, I3C, LPS",improved mucosal healing; also recorded: reverses LPS induced apoptosis and impaired proliferation
same,TLR4-induced (LPS) cytokine induction in the intestinal mucosa,"[4]; wild type mice, I3C 50 mg/kg, LPS 5 mg/kg",reduced TLR4-induced (LPS 5 mg/kg) cytokine induction; also recorded: reduces TLR4 signaling; also recorded: reduces LPS-induced IL-6
same,Cypla1 expression,"[4]; wild-type mice, I3C 50 mg/kg",induced Cypla1 expression; also recorded: increases Cypla1
